We go through twelve compounds from ChEMBL document CHEMBL1201862, “PubChem BioAssay data set” (2004).

Test systems include CAKI-1; CCRF-CEM; HCC 2998; HL-60; HOP-62; HOP-92; IGROV-1; LOX IMVI; NCI-H23; OVCAR-4; RXF 393; SF-268; SK-MEL-2; SK-MEL-5; SR; DU-145; MCF7; MDA-MB-435; T47D.
Common to all, as to test: NCI anticancer screen, dose series, 48 h

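Cells were grown in 96-well plates and exposed to each compound for 48 hours at five concentrations; endpoints were interpolated linearly between bracketing concentrations, or set to the highest concentration if not reached. GI50: concentration for 50% inhibition of growth.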 Activity calls are given as the source filed them. No stated cut-off is given here; in the data, active = GI50 up to about 1.1 µM and inactive = higher.

As to `COC(=O)C(C(=O)C(=O)Nc1cccc(OC)c1)c1cnc2ccccc2n1` (centres undefined), the GI50 in the assay with CAKI-1, in the assay on CCRF-CEM, in the assay on HCC 2998, in the assay on HL-60, in the assay with HOP-62 and in the assay on HOP-92 was > 100 µM (inactive) in each case. The GI50 was > 100 µM (inactive) in the assay on IGROV-1; > 100 µM (inactive) in the assay on LOX IMVI; > 100 µM (inactive) with NCI-H23; > 100 µM (inactive) in the assay with OVCAR-4; 46.1 µM (inactive) in the assay on RXF 393; > 100 µM (inactive) in the assay on SF-268. Also, the GI50 in the assay on SK-MEL-2, with SK-MEL-5 and in the assay on SR was > 100 µM (inactive) each time.
Consider `COc1ccc(-c2c(-c3ccc(OC)cc3)n3c(=O)n(C)c(=O)n23)cc1`, for which the GI50 was > 100 µM (inactive) in the assay with CAKI-1; 59.4 µM (inactive) in the assay on CCRF-CEM; 15.6 µM (inactive) in the assay on DU-145; > 100 µM (inactive) in the assay with HCC 2998; 22.7 µM (inactive) in the assay on HOP-62; 18.8 µM (inactive) in the assay with HOP-92. The GI50 with IGROV-1 was > 100 µM (inactive); with LOX IMVI, > 100 µM (inactive); in the assay with MCF7 it was > 100 µM (inactive); with MDA-MB-435, > 100 µM (inactive); in the assay on NCI-H23, > 100 µM (inactive); in the assay on OVCAR-4, 23.3 µM (inactive). Also, the GI50 in the assay on RXF 393 was 76.4 µM (inactive); with SK-MEL-2, 43.2 µM (inactive); in the assay with SK-MEL-5, > 100 µM (inactive); in the assay on T47D, 20.6 µM (inactive).
With `COC(=O)c1ccc(Cc2ccc(C(=O)OC)o2)o1`, the GI50 with CAKI-1, in the assay on CCRF-CEM, with HCC 2998, in the assay on HL-60, in the assay with HOP-62 and in the assay on HOP-92 was > 378 µM (inactive) throughout. Also, the GI50 in the assay with IGROV-1 was > 378 µM (inactive); in the assay on LOX IMVI it was > 378 µM (inactive); in the assay on NCI-H23 it was > 378 µM (inactive); in the assay with RXF 393, 282 µM (inactive); in the assay on SF-268, > 378 µM (inactive); in the assay on SK-MEL-2 it was > 378 µM (inactive). For the same compound, the GI50 in the assay on SK-MEL-5 and in the assay with SR was > 378 µM (inactive) in each case.
In the case of `O=C(O)C1C2CCC(C2)C1c1ccccc1` (centres undefined), the GI50 in the assay on CAKI-1, in the assay with CCRF-CEM, in the assay with DU-145, in the assay with HCC 2998, in the assay with HL-60 and in the assay with HOP-62 was > 100 µM (inactive) each time. Further, the GI50 in the assay on HOP-92, in the assay on LOX IMVI, in the assay with MCF7, with MDA-MB-435, with NCI-H23 and with RXF 393 was > 100 µM (inactive) each time. For the same compound, the GI50 in the assay on SF-268 is > 100 µM (inactive); in the assay with SK-MEL-2 it was 55.5 µM (inactive); in the assay with SK-MEL-5 it was > 100 µM (inactive); in the assay on SR, > 100 µM (inactive); in the assay on T47D, > 100 µM (inactive).
Turning to `c1ccc(-c2[nH]c(-c3ccccc3)c(-c3cnccn3)c2-c2cnccn2)cc1`, the GI50 in the assay with CAKI-1, with CCRF-CEM, with HCC 2998, with HL-60, in the assay with HOP-62 and in the assay with HOP-92 was > 100 µM (inactive) each time. Also, the GI50 in the assay on IGROV-1, in the assay with LOX IMVI, with NCI-H23, with OVCAR-4, with RXF 393 and in the assay with SF-268 was > 100 µM (inactive) throughout. Further, the GI50 in the assay with SK-MEL-2 was > 100 µM (inactive); in the assay on SK-MEL-5, > 100 µM (inactive); in the assay with SR it was 82.8 µM (inactive).
On to `Clc1ccc(CN2COc3c(cc(Cl)c4cccnc34)C2)cc1`, for which the GI50 is 2.62 µM (inactive) with CAKI-1; 1.79 µM (inactive) in the assay with CCRF-CEM; 4.3 µM (inactive) in the assay with HCC 2998; 0.546 µM (active) in the assay with HL-60; 1.5 µM (inactive) in the assay on HOP-62; 3.64 µM (inactive) in the assay on HOP-92. In addition, the GI50 in the assay with IGROV-1 is 2.36 µM (inactive); in the assay with LOX IMVI it was 1.38 µM (inactive); in the assay on NCI-H23, 2.57 µM (inactive); in the assay with OVCAR-4 it was 3.33 µM (inactive); with RXF 393 it was 1.58 µM (inactive); with SF-268, 2.93 µM (inactive). Moreover, the GI50 in the assay on SK-MEL-2 was 1.85 µM (inactive); in the assay with SK-MEL-5 it was 2.26 µM (inactive); in the assay with SR, 1.91 µM (inactive).
As for `CCc1cccc(CC)c1NC(=O)/C(Cl)=C(/Cl)C(=O)O`, the GI50 in the assay with CAKI-1 was 16.8 µM (inactive); in the assay with CCRF-CEM, 6.44 µM (inactive); with HCC 2998, > 48.2 µM (inactive); with HL-60 it was 5.05 µM (inactive); with HOP-62, > 100 µM (inactive); with HOP-92, 21.7 µM (inactive). In addition, the GI50 is 32.2 µM (inactive) with IGROV-1; > 100 µM (inactive) in the assay on LOX IMVI; 38.3 µM (inactive) with NCI-H23; 17.2 µM (inactive) with OVCAR-4; 28.9 µM (inactive) with RXF 393; 40.3 µM (inactive) in the assay on SF-268. In addition, the GI50 with SK-MEL-2 is > 100 µM (inactive); with SK-MEL-5, 36.7 µM (inactive); with SR, > 44.3 µM (inactive).
For the compound `CCCCN/N=N/c1cn(C2OC(CO)C(O)C2O)c(=O)[nH]c1=O` (centres undefined), the GI50 in the assay on CAKI-1, with CCRF-CEM, in the assay with DU-145, in the assay with HCC 2998, in the assay with HL-60 and in the assay with HOP-62 was > 100 µM (inactive) throughout. The GI50 in the assay on IGROV-1, in the assay with LOX IMVI, with MCF7, with MDA-MB-435, in the assay with NCI-H23 and with OVCAR-4 was > 100 µM (inactive) each time. Besides, the GI50 in the assay with RXF 393, with SF-268, in the assay on SK-MEL-2, with SK-MEL-5, in the assay on SR and in the assay on T47D was > 100 µM (inactive) each time.
For `O=C(C=P(c1ccccc1)(c1ccccc1)c1ccccc1)c1ccc(-c2ccc(F)cc2F)cc1`, the GI50 is 2.12 µM (inactive) in the assay with CAKI-1; 2.61 µM (inactive) with CCRF-CEM; 3.1 µM (inactive) with DU-145; 2.08 µM (inactive) with HCC 2998; 2.43 µM (inactive) with HL-60; 3.79 µM (inactive) with HOP-62. For the same compound, the GI50 was 2.19 µM (inactive) with HOP-92; 2 µM (inactive) with LOX IMVI; 2.55 µM (inactive) in the assay on MCF7; 2.28 µM (inactive) in the assay on MDA-MB-435; 3.22 µM (inactive) in the assay on NCI-H23; 2.9 µM (inactive) in the assay with OVCAR-4. Further, the GI50 is 2.64 µM (inactive) with RXF 393; 4.03 µM (inactive) with SF-268; 1.84 µM (inactive) in the assay on SK-MEL-5; 3.44 µM (inactive) in the assay on SR; 2.33 µM (inactive) with T47D.
With `CC(C)(C)c1cc[n+](C[n+]2ccc(C(C)(C)C)cc2)cc1`, the GI50 in the assay on CAKI-1, in the assay with CCRF-CEM, in the assay with DU-145, in the assay with HCC 2998, with HL-60 and with HOP-62 was > 100 µM (inactive) in each case. For the same compound, the GI50 in the assay with HOP-92, with IGROV-1, in the assay on MCF7, in the assay on MDA-MB-435, in the assay on NCI-H23 and in the assay with OVCAR-4 was > 100 µM (inactive) in each case. For the same compound, the GI50 in the assay on RXF 393, in the assay with SF-268, with SK-MEL-2, in the assay with SK-MEL-5, in the assay on SR and with T47D was > 100 µM (inactive) each time.
For the compound `COc1cc2c(c(OC)c1OC)C(=O)[C@@H](O)[C@H]2NC(N)=O`, the GI50 with CAKI-1, with CCRF-CEM, in the assay on DU-145, in the assay on HCC 2998, with HL-60 and in the assay with HOP-62 was > 100 µM (inactive) throughout. For the same compound, the GI50 in the assay on IGROV-1, with LOX IMVI, in the assay with MCF7, in the assay on MDA-MB-435, in the assay with NCI-H23 and in the assay on RXF 393 was > 100 µM (inactive) each time. Also, the GI50 in the assay with SF-268 was > 100 µM (inactive); in the assay with SK-MEL-5, > 100 µM (inactive); in the assay with T47D, 31.6 µM (inactive).
On to `Oc1ncnc2c1CCCN2`, for which the GI50 with CAKI-1, in the assay with CCRF-CEM, in the assay with HCC 2998, in the assay with HL-60, in the assay on HOP-62 and in the assay on HOP-92 was > 100 µM (inactive) throughout. Further, the GI50 with IGROV-1, in the assay with LOX IMVI, in the assay with NCI-H23, in the assay with RXF 393, in the assay on SF-268 and in the assay with SK-MEL-2 was > 100 µM (inactive) throughout. Moreover, the GI50 in the assay on SK-MEL-5 and with SR was > 100 µM (inactive) throughout.
